Data as given in US20100298314A1, “NOVEL JNK INHIBITORS” (Schering Corporation, priority 2006, published 2010).
Values joined by “and” are separate entries in the source; they are usually repeats but may differ in a detail not shown here. Equal entries are not always repeated. Where two headings read alike, the source gives them in different places.

Experiments:
Assay type in all cases: biochemical
JNK1 = JNK1 (Homo sapiens, UniProt P45983); experiment: JNK1 kinase DELFIA (phosphorylation of biotinylated GST-ATF2)
Chain of JNK1 (P45983 whole entry, species assumed): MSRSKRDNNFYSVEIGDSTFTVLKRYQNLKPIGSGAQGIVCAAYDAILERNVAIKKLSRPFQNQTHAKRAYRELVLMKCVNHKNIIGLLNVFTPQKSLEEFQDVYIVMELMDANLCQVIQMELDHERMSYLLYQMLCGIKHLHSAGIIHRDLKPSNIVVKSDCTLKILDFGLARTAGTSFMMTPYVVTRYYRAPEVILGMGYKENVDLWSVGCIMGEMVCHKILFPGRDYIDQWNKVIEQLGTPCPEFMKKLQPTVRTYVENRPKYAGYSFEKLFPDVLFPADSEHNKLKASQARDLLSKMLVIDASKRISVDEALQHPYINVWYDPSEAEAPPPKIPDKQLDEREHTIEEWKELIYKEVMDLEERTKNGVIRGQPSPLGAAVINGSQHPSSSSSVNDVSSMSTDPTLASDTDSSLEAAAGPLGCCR
Protocol: (§1) Before initiation of kinase reactions, compounds were pre-incubated with the enzyme for 10 minutes. Pre-incubation reactions contained 50 mM HEPES pH 7.3, 10 mM MgCl2, 1 mM DTT, 75 mM NaCl, 1 mM EDTA, 1 mM EGTA, 0.01% CHAPS, 2 nM JNK1, 6 ug/mL biotinylated GST-ATF2, 0.1 mg/ml BSA, 5% DMSO and 0-100 μM compound in a total volume of 40 μL. After a 10 minute room temperature pre-incubation, 10 μL of 35 μM ATP was added to start the reaction (final concentration of ATP=7 uM). Reactions were incubated at room temperature for 30 minutes. A small aliquot (10 uL) was taken and quenched by adding into 190 uL of DELFIA Assay buffer containing 100 mM EDTA. The amount of phosphate transferred to biotinylated GST-ATF2 was measured using the Dissociation Enhanced Lanthanide Fluorescence Immuno-assay (DELFIA) from Perkin Elmer according to manufacturers protocol. Briefly, biotinylated GST-ATF2 was captured on streptavidin coated plates for 1 hour, washed twice, then incubated for 1 hour with a 1:1000 dilution of rabbit-anti-phospho-ATF2 antibody and a 1:3500 dilution of Europium-labeled anti-rabbit secondary antibody. Free antibody was removed with six washes, Europium was dissociated from the antibody, and Europium fluorescence was measured using an excitation wavelength of 340 nm and an emission wavelength of 615 nm. JNK2 and JNK3 kinase reactions were carried out similarly, with the exception that the final concentration of ATP was 4 uM and 2 uM, respectively.

JNK3 = JNK3 (Homo sapiens, UniProt P53779); experiment: JNK3 kinase DELFIA (phosphorylation of biotinylated GST-ATF2); settings: final ATP 2 uM
Chain of JNK3 (P53779 whole entry, species assumed): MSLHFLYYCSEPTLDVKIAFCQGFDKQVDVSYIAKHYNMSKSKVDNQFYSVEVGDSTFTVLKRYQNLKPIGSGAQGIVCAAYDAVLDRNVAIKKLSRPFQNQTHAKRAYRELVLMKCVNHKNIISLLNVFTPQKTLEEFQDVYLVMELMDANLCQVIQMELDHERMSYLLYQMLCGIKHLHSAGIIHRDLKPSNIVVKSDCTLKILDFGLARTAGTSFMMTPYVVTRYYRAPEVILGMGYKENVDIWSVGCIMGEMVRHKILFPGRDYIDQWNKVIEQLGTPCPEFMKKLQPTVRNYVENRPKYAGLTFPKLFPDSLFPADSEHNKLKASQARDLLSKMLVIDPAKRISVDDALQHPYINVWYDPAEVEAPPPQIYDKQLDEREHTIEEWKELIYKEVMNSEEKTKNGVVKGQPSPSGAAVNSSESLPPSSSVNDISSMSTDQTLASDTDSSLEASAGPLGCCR
Protocol: as §1

JNK2 = JNK2 (Homo sapiens, UniProt P45984); experiment: JNK2 kinase DELFIA (phosphorylation of biotinylated GST-ATF2); settings: final ATP 4 uM, reported as range for a group
Chain of JNK2 (P45984 whole entry, species assumed): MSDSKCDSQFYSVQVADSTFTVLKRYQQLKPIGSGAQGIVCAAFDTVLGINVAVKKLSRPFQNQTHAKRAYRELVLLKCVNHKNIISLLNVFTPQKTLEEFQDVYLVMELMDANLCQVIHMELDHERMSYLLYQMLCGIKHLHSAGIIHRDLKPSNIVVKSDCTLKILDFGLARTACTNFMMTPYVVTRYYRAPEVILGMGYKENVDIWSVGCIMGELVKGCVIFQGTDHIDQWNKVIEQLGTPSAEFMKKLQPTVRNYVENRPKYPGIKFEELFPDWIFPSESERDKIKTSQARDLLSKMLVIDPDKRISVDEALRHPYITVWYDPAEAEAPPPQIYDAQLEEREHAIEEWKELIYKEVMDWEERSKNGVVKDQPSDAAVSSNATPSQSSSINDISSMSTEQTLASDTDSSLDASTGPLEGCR
Protocol: as §1

[1] = DELFIA, 2 nM JNK1, final ATP 7 uM, 10 min pre-incubation, reported as range for a group

IC50 (JNK1; [1])	IC50 (JNK3)	IC50 (JNK2)	IC50 (JNK1; read-out: JNK 1 IC50)	SMILES
6 to 100 nM	9 to 50 nM	4 to 46 nM		Cc1ccn(-c2ccc(CNC(=O)c3cccn4c(C(=O)N[C@H](CO)CC(C)C)c(-c5ccsc5)nc34)cn2)n1 [Compound 323]
6 to 100 nM and 6 to 20 nM and 6 to 10 nM	9 to 50 nM	4 to 46 nM	10 nM	CC(C)C[C@@H](CO)NC(=O)c1c(-c2ccccn2)nc2c(C(=O)NCc3ccc4nc(N)sc4c3)cccn12 [Compound 478]
6 to 100 nM and 6 to 20 nM	9 to 50 nM	4 to 46 nM		CC(C)C[C@@H](CO)NC(=O)c1c(-c2ccsc2)nc2c(C(=O)NCc3ccc(-c4ccncc4)nc3)cccn12 [Compound 307]
6 to 100 nM	9 to 50 nM	4 to 46 nM		CC(C)C[C@@H](CO)NC(=O)c1c(-c2ccsc2)nc2c(C(=O)NCc3ccc(N4CCN(C)CC4)nc3)cccn12 [Compound 299]
6 to 20 nM	9 to 50 nM	4 to 46 nM		CC(C)C[C@@H](CO)NC(=O)c1c(-c2ccsc2)nc2c(C(=O)NCc3cnn(-c4ccccc4)c3)cccn12 [Compound 216]
6 to 100 nM	9 to 50 nM	4 to 46 nM	23 nM	CC(C)C[C@@H](CO)NC(=O)c1c(-c2cc(F)cc(F)c2)nc2c(C(=O)NCc3ccc4nc(N)sc4c3)cccn12 [Compound 544]
6 to 100 nM and 6 to 20 nM	9 to 50 nM	4 to 46 nM		CC(C)C[C@@H](CO)NC(=O)c1c(-c2ccsc2)nc2c(C(=O)NCc3ccc(-c4cccnc4)nc3)cccn12 [Compound 306]
6 to 20 nM and 6 to 10 nM	9 to 50 nM	4 to 46 nM	8 nM	Cc1nc2cc(CNC(=O)c3cccn4c(C(=O)N[C@H](CO)CC(C)C)c(-c5ccsc5)nc34)ccc2[nH]1 [Compound 112]
6 to 100 nM	9 to 50 nM	4 to 46 nM		CCc1nc2c(C(=O)NCc3ccc4nc(N)sc4c3)cccn2c1C(=O)N[C@H](CO)CC(C)C [Compound 456]
6 to 100 nM	9 to 50 nM	52 to 94 nM		C[C@@H](CO)NC(=O)c1c(-c2ccsc2)nc2c(C(=O)NCc3ccc4nc(N)sc4c3)cccn12 [Compound 22]
6 to 100 nM	9 to 50 nM	4 to 46 nM		CC(C)C[C@@H](CO)NC(=O)c1c(-c2ccsc2)nc2c(C(=O)NCc3ccc(N4CCCCC4)nc3)cccn12 [Compound 301]
6 to 100 nM and 6 to 20 nM and 6 to 10 nM	9 to 50 nM	4 to 46 nM		Cc1nc2ccc(CNC(=O)c3cccn4c(C(=O)N[C@H](CO)CC(C)C)c(-c5ccccn5)nc34)cc2[nH]1 [Compound 479]
6 to 100 nM	54 to 98 nM	4 to 46 nM		CC(C)C[C@@H](CO)NC(=O)c1c(-c2ccsc2)nc2c(C(=O)NCc3ccc(N)nc3)cccn12 [Compound 327]
6 to 100 nM and 6 to 20 nM	9 to 50 nM	4 to 46 nM	11 nM	Cc1nc2ccc(CNC(=O)c3cccn4c(C(=O)N[C@H](CO)CC(C)C)c(-c5ccccn5)nc34)cc2n1C [Compound 483]
6 to 20 nM	9 to 50 nM	4 to 46 nM		CC(C)C[C@@H](CO)NC(=O)c1c(-c2ccsc2)nc2c(C(=O)NCc3ccc4nc(C(C)C)[nH]c4c3)cccn12 [Compound 114]
6 to 20 nM	9 to 50 nM	4 to 46 nM		CCc1nc2c(C(=O)NCc3ccc4nc(C)n(C)c4c3)cccn2c1C(=O)N[C@H](CO)CC(C)C [Compound 463]
6 to 100 nM and 6 to 20 nM	9 to 50 nM	4 to 46 nM	19 nM	Nc1nc2ccc(CNC(=O)c3cccn4c(C(=O)N[C@H](CO)c5ccccc5)c(-c5ccsc5)nc34)cc2s1 [Compound 16]
6 to 100 nM	54 to 98 nM	52 to 94 nM		CS(=O)(=O)c1ccc(CNC(=O)c2cccn3c(C(=O)N[C@H](CO)c4ccccc4)c(-c4ccsc4)nc23)cc1 [Compound 93]
6 to 100 nM	118 to 174 nM	107 to 173 nM		Nc1nc2ccc(CNC(=O)c3cccn4c(C(=O)N[C@H]5CC[C@H](O)CC5)c(-c5ccsc5)nc34)cc2s1 [Compound 56]
6 to 100 nM	54 to 98 nM	107 to 173 nM		CC(C)C[C@H](CO)NC(=O)c1c(-c2ccsc2)nc2c(C(=O)NCc3ccc(N4CCCC4)nc3)cccn12 [Compound 291]
6 to 100 nM	9 to 50 nM	4 to 46 nM		Cc1nc2ccc(CNC(=O)c3cccn4c(C(=O)N[C@H](CO)CC(C)C)c(C)nc34)cc2[nH]1 [Compound 599]
6 to 20 nM	9 to 50 nM	4 to 46 nM		Cc1ccc(-n2cc(CNC(=O)c3cccn4c(C(=O)N[C@H](CO)CC(C)C)c(-c5ccsc5)nc34)cn2)cc1 [Compound 219]
6 to 100 nM	9 to 50 nM	4 to 46 nM		Cc1nc2ccc(CNC(=O)c3cccn4c(C(=O)N[C@H](CO)CC(C)C)c(-c5ccsc5)nc34)cc2s1 [Compound 130]
6 to 20 nM	9 to 50 nM	4 to 46 nM		Cc1cccc(-n2cc(CNC(=O)c3cccn4c(C(=O)N[C@H](CO)CC(C)C)c(-c5ccsc5)nc34)cn2)c1 [Compound 218]
6 to 100 nM	209 to 479 nM	107 to 173 nM		Nc1nc2ccc(CNC(=O)c3cccn4c(C(=O)NC[C@H]5CCCCC[C@H]5O)c(-c5ccsc5)nc34)cc2s1 [Compound 48]
